According to patent publication US11446287B2, “Compounds and methods for EP300 or CBP modulation and indications therefor” (Opna Immuno-Oncology SA, priority 2019, dated 2022):

Target: T1, Recombinant human BRD4 containing dual bromodomains (BRD4-BD12 (1-477)) (Homo sapiens, UniProt O60885)
T1 construct: Recombinant human BRD4 containing dual bromodomains (BRD4-BD12 (1-477)); made in house; host or cells: E. coli BL21-CodonPlus (DE3), modified pET vector
Experiment: BRD4 Alphascreen binding assay
Method in brief: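 AlphaScreen proximity between Ni-chelate-bound BRD4-BD12 (1-477) and streptavidin-captured H4 K5/K8/K12/K16-acetyl peptide measured after 1 h room-temperature compound incubation and 30 min with 7.5 μg/ml beads. Buffer: 50 mM HEPES pH 7.5, 50 mM NaCl, 0.01% BSA, 0.01% Triton X-100; data plate-normalized and four-parameter fit for IC50.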

Row | Compound | IC50 [µM]
1 | CCOc1cc(C(=O)O)cc(OCC)c1-n1cc(-c2cnn(CCC#N)c2)c2ncc(-c3c(C)noc3C)cc21 [P-0266, 4-(3-(1-(2-cyanoethyl)-1H-pyrazol-4-yl)-6-(3,5-dimethylisoxazol-4-yl)-1H-pyrrolo[3,2-b]pyridin-1-yl)-3,5-diethoxybenzoic acid] | 1 to 8
2 | CCOc1cc(C(=O)O)cc(OCC)c1-n1cc(-c2cnn(CC(=O)N(C)C)c2)c2ncc(-c3c(C)noc3C)cc21 [P-0267, 4-(3-(1-(2-(dimethylamino)-2-oxoethyl)-1H-pyrazol-4-yl)-6-(3,5-dimethylisoxazol-4-yl)-1H-pyrrolo[3,2-b]pyridin-1-yl)-3,5-diethoxybenzoic acid] | 1 to 8
3 | Cc1noc(C)c1-c1cnc2c(c1)c(-c1cc(C(=O)O)ccc1OC(F)(F)F)cn2-c1ccc(F)cc1F [P-0268, 3-(1-(2,4-difluorophenyl)-5-(3,5-dimethylisoxazol-4-yl)-1H-pyrrolo[2,3-b]pyridin-3-yl)-4-(trifluoromethoxy)benzoic acid] | 1 to 8
4 | Cc1noc(C)c1-c1cnc2c(-c3ccc(F)cc3F)cn(-c3c(OC(C)C)cc(C(=O)O)cc3OC(C)C)c2c1 [P-0269, 4-(3-(2,4-difluorophenyl)-6-(3,5-dimethylisoxazol-4-yl)-1H-pyrrolo[3,2-b]pyridin-1-yl)-3,5-diisopropoxybenzoic acid] | 1 to 8
5 | CCOc1cc(C(=O)O)cc(OCC)c1-n1cc(CC2CCC2)c2ncc(-n3c(C)nnc3C)cc21 [P-0270, 4-(3-(cyclobutylmethyl)-6-(3,5-dimethyl-4H-1,2,4-triazol-4-yl)-1H-pyrrolo[3,2-b]pyridin-1-yl)-3,5-diethoxybenzoic acid] | 8 to 1000
6 | CCOc1cc(C(=O)O)cc(OCC)c1-n1cc(C2CCC(F)(F)CC2)c2ncc(-c3c(C)noc3C)cc21 [P-0271, 4-(3-(4,4-difluorocyclohexyl)-6-(3,5-dimethylisoxazol-4-yl)-1H-pyrrolo[3,2-b]pyridin-1-yl)-3,5-diethoxybenzoic acid] | 8 to 1000
7 | Cc1noc(C)c1-c1cnc2c(c1)c(-c1cnn(CC(=O)O)c1)cn2-c1ncccc1C#CC1CC1 [P-0272, 2-(4-(1-(3-(cyclopropylethynyl)pyridin-2-yl)-5-(3,5-dimethylisoxazol-4-yl)-1H-pyrrolo[2,3-b]pyridin-3-yl)-1H-pyrazol-1-yl)acetic acid] | 8 to 1000
8 | Cc1noc(C)c1-c1cnc2c(c1)c(-c1ccc(C(=O)O)cc1OC(F)F)cn2-c1ccccc1 [P-0273, 3-(difluoromethoxy)-4-(5-(3,5-dimethylisoxazol-4-yl)-1-phenyl-1H-pyrrolo[2,3-b]pyridin-3-yl)benzoic acid] | 1 to 8
9 | Cc1noc(C)c1-c1cnc2c(-c3ccccc3)cn(-c3cc(C(=O)O)ccc3OC(F)(F)F)c2c1 [P-0274, 3-(6-(3,5-dimethylisoxazol-4-yl)-3-phenyl-1H-pyrrolo[3,2-b]pyridin-1-yl)-4-(trifluoromethoxy)benzoic acid] | 1 to 8
10 | Cc1noc(C)c1-c1cnc2c(c1)c(-c1ccc(C(=O)O)cc1OC(C)C)cn2-c1ccccc1 [P-0275, 4-(5-(3,5-dimethylisoxazol-4-yl)-1-phenyl-1H-pyrrolo[2,3-b]pyridin-3-yl)-3-isopropoxybenzoic acid] | 1 to 8
11 | Cc1noc(C)c1-c1cnc2c(c1)c(-c1ccc(C(=O)O)cc1OC1CCC1)cn2-c1ccccc1 [P-0276, 3-cyclobutoxy-4-(5-(3,5-dimethylisoxazol-4-yl)-1-phenyl-1H-pyrrolo[2,3-b]pyridin-3-yl)benzoic acid] | 1 to 8
12 | Cc1noc(C)c1-c1cnc2c(c1)c(-c1ccc(C(=O)O)cc1OCC(F)F)cn2-c1ccccc1 [P-0277, 3-(2,2-difluoroethoxy)-4-(5-(3,5-dimethylisoxazol-4-yl)-1-phenyl-1H-pyrrolo[2,3-b]pyridin-3-yl)benzoic acid] | 1 to 8
13 | Cc1noc(C)c1-c1cnc2c(c1)c(-c1ccc(C(=O)O)cc1OCC(F)(F)F)cn2-c1ccccc1 [P-0278, 4-(5-(3,5-dimethylisoxazol-4-yl)-1-phenyl-1H-pyrrolo[2,3-b]pyridin-3-yl)-3-(2,2,2-trifluoroethoxy)benzoic acid] | 1 to 8
14 | Cc1noc(C)c1-c1cnc2c(c1)c(-c1ccc(C(=O)O)cc1OC(F)(F)F)cn2-c1ccc(F)cc1 [P-0279, 4-(5-(3,5-dimethylisoxazol-4-yl)-1-(4-fluorophenyl)-1H-pyrrolo[2,3-b]pyridin-3-yl)-3-(trifluoromethoxy)benzoic acid] | 1 to 8
15 | Cc1noc(C)c1-c1cnc2c(c1)c(-c1cnn(CC(=O)O)c1)cn2C(C1CC1)C1CC1 [P-0280, 2-(4-(1-(dicyclopropylmethyl)-5-(3,5-dimethylisoxazol-4-yl)-1H-pyrrolo[2,3-b]pyridin-3-yl)-1H-pyrazol-1-yl)acetic acid] | 8 to 1000
16 | Cc1noc(C)c1-c1cnc2c(c1)c(-c1ccc(C(=O)O)cc1OC(F)(F)F)cn2-c1cnc(N2CCC2)nc1 [P-0281, 4-(1-(2-(azetidin-1-yl)pyrimidin-5-yl)-5-(3,5-dimethylisoxazol-4-yl)-1H-pyrrolo[2,3-b]pyridin-3-yl)-3-(trifluoromethoxy)benzoic acid] | 1 to 8
17 | Cc1noc(C)c1-c1cnc2c(c1)c(-c1ccc(C(=O)O)cc1OC(F)(F)F)cn2-c1ccc(S(C)(=O)=O)cc1 [P-0282, 4-(5-(3,5-dimethylisoxazol-4-yl)-1-(4-(methylsulfonyl)phenyl)-1H-pyrrolo[2,3-b]pyridin-3-yl)-3-(trifluoromethoxy)benzoic acid] | 0.0001 to 1
18 | Cc1noc(C)c1-c1cnc2c(c1)c(-c1c(Cl)cc(C(=O)O)cc1OC(C)C)cn2C(C1CC1)C1CC1 [P-0283, 3-chloro-4-(1-(dicyclopropylmethyl)-5-(3,5-dimethylisoxazol-4-yl)-1H-pyrrolo[2,3-b]pyridin-3-yl)-5-isopropoxybenzoic acid] | 1 to 8
19 | Cc1noc(C)c1-c1cnc2c(c1)c(-c1cc(C(=O)O)ccc1OC(F)(F)F)cn2C(C1CC1)C1CC1 [P-0284, 3-(1-(dicyclopropylmethyl)-5-(3,5-dimethylisoxazol-4-yl)-1H-pyrrolo[2,3-b]pyridin-3-yl)-4-(trifluoromethoxy)benzoic acid] | 8 to 1000
20 | Cc1noc(C)c1-c1cnc2c(c1)c(-c1ccc(C(=O)O)cc1OC(F)(F)F)cn2[C@H]1CCOC1 [P-0285, (S)-4-(5-(3,5-dimethylisoxazol-4-yl)-1-(tetrahydrofuran-3-yl)-1H-pyrrolo[2,3-b]pyridin-3-yl)-3-(trifluoromethoxy)benzoic acid] | 8 to 1000
21 | Cc1noc(C)c1-c1cnc2c(c1)c(-c1ccc(C(=O)O)cc1OC(F)(F)F)cn2[C@@H]1CCOC1 [P-0286, (R)-4-(5-(3,5-dimethylisoxazol-4-yl)-1-(tetrahydrofuran-3-yl)-1H-pyrrolo[2,3-b]pyridin-3-yl)-3-(trifluoromethoxy)benzoic acid] | 8 to 1000
22 | CCn1cc(-n2cc(-c3ccc(C(=O)O)cc3OC(F)(F)F)c3cc(-c4c(C)noc4C)cnc32)c(C)n1 [P-0287, 4-(5-(3,5-dimethylisoxazol-4-yl)-1-(1-ethyl-3-methyl-1H-pyrazol-4-yl)-1H-pyrrolo[2,3-b]pyridin-3-yl)-3-(trifluoromethoxy)benzoic acid] | 1 to 8
23 | Cc1nn(C(F)F)cc1-n1cc(-c2ccc(C(=O)O)cc2OC(F)(F)F)c2cc(-c3c(C)noc3C)cnc21 [P-0288, 4-(1-(1-(difluoromethyl)-3-methyl-1H-pyrazol-4-yl)-5-(3,5-dimethylisoxazol-4-yl)-1H-pyrrolo[2,3-b]pyridin-3-yl)-3-(trifluoromethoxy)benzoic acid] | 1 to 8
24 | Cc1noc(C)c1-c1cnc2c(c1)c(-c1ccc(C(=O)O)cc1OC(F)(F)F)cn2-c1cnn(C(F)F)c1C [P-0289, 4-(1-(1-(difluoromethyl)-5-methyl-1H-pyrazol-4-yl)-5-(3,5-dimethylisoxazol-4-yl)-1H-pyrrolo[2,3-b]pyridin-3-yl)-3-(trifluoromethoxy)benzoic acid] | 1 to 8
25 | Cc1noc(C)c1-c1cnc2c(c1)c(-c1ccc(C(=O)O)cc1OC(F)(F)F)cn2C1CCNCC1 [P-0290, 4-(5-(3,5-dimethylisoxazol-4-yl)-1-(piperidin-4-yl)-1H-pyrrolo[2,3-b]pyridin-3-yl)-3-(trifluoromethoxy)benzoic acid] | 8 to 1000
26 | CC(=O)N1CCC(n2cc(-c3ccc(C(=O)O)cc3OC(F)(F)F)c3cc(-c4c(C)noc4C)cnc32)CC1 [P-0291, 4-(1-(1-acetylpiperidin-4-yl)-5-(3,5-dimethylisoxazol-4-yl)-1H-pyrrolo[2,3-b]pyridin-3-yl)-3-(trifluoromethoxy)benzoic acid] | 8 to 1000
27 | Cc1noc(C)c1-c1cnc2c(c1)c(-c1ccc(C(=O)O)cc1OC(F)(F)F)cn2C1CCN(S(C)(=O)=O)CC1 [P-0292, 4-(5-(3,5-dimethylisoxazol-4-yl)-1-(1-(methylsulfonyl)piperidin-4-yl)-1H-pyrrolo[2,3-b]pyridin-3-yl)-3-(trifluoromethoxy)benzoic acid] | 1 to 8
28 | Cc1noc(C)c1-c1cnc2c(c1)c(-c1ccc(C(=O)O)cc1OC(F)(F)F)cn2-c1ccncc1F [P-0293, 4-(5-(3,5-dimethylisoxazol-4-yl)-1-(3-fluoropyridin-4-yl)-1H-pyrrolo[2,3-b]pyridin-3-yl)-3-(trifluoromethoxy)benzoic acid] | 1 to 8
29 | Cc1noc(C)c1-c1cnc2c(c1)c(-c1ccc(C(=O)O)cc1OC(F)(F)F)cn2-c1cnn(CC(C)(C)O)c1 [P-0294, 4-(5-(3,5-dimethylisoxazol-4-yl)-1-(1-(2-hydroxy-2-methylpropyl)-1H-pyrazol-4-yl)-1H-pyrrolo[2,3-b]pyridin-3-yl)-3-(trifluoromethoxy)benzoic acid] | 0.0001 to 1
30 | CCOc1cc(C(=O)O)ncc1-c1cn(-c2ccc(F)cc2F)c2ncc(-c3c(C)noc3C)cc12 [P-0295, 5-(1-(2,4-difluorophenyl)-5-(3,5-dimethylisoxazol-4-yl)-1H-pyrrolo[2,3-b]pyridin-3-yl)-4-ethoxypicolinic acid] | 1 to 8
